Measurements published in patent publication US9134328B2, “Methods of using benzothiazole derivative compounds and compositions” (University of Pittsburgh—Of the Commonwealth System of …, priority 2003, dated 2015).

Experiments:
[1] = In vivo baboon PET imaging studies; details: for peak maximum radioactivity remaining in brain at later time points / early-to-late brain radioactivity concentration: baboon brain; for early-to-late brain radioactivity concentration: ratio of early to late radioactivity concentration; for rate of non-specific clearance (t1/2): baboon cerebellum (reference region devoid of specific binding); for higher concentration of radioactivity at 90 minutes in white matter regions than in gray matter regions / clearance half-time from baboon brain gray matter / brain penetration of radioactivity at early time points: control baboon; for higher concentration of radioactivity at 90 minutes in white matter regions than in gray matter regions: 90 minutes post-injection, white matter vs gray matter such as temporal cortex; for clearance half-time from baboon brain gray matter / brain penetration of radioactivity at early time points: intravenous injection; for clearance half-time from baboon brain gray matter: PET; for brain penetration of radioactivity at early time points: PET time-activity curve, all three brain regions
Procedure: PET imaging studies in adult baboons (Papio anubis) (weight 15-35 kg, ages 6-12 years) were performed with Compound B and Compound C in accordance with the Guide for the Care and Use of Laboratory Animals adopted by NIH and with the approval of the local Institutional Animal Care and Use Committee. Prior to PET imaging, the animals were initially sedated with ketamine (10-15 mg/kg, i.m.), given atropine (0.5 mg, i.m.) to control salivation and heart rate, and intubated. The baboons were subsequently maintained on a ventilator with isofluorane (0.5-1.25%) anesthesia and medical air. Pancuronium bromide was administered as necessary (intravenously, up to 0.06 mg/kg/hour, titrated to effect) to keep the animals immobilized during the study. A femoral artery catheter was inserted to monitor blood pressure and sample arterial blood, and an intravenous catheter was placed in an antecubital vein for radiotracer injection and to administer fluids as necessary throughout the course of the imaging study. Blood pressure, heart and respiratory rates, and expired CO2 and oxygen saturation levels were monitored continuously during the PET studies. The baseline rectal body temperature (˜37° C.) was maintained using a heating blanket (Gaymar, Orchard Park, N.Y.) and temperature regulator (Yellow Springs Instruments, Yellow Springs, Ohio). Prior to scanning, the baboon's head was fixed so that the image planes were acquired approximately parallel to the orbital-meatal line.
PET data were acquired using an ECAT HR+PET scanner (CTI PET Systems, Knoxyille, Tenn.) in 3D imaging mode (63 parallel slices; 15.2 cm axial field-of-view; 4.1 mm full-width half-maximum in-plane resolution). A Neuro-Insert (CTI PET Systems) was used to reduce the contribution of scattered photon events. After the baboons were positioned in the PET scanner, a windowed transmission scan (10-15 minutes) was obtained for attenuation correction of the PET emission data using rotating ^68Ge/^68Ga rods. Compound B and Compound C were administered intravenously over 20 seconds, and a dynamic series of PET scans were acquired over 90 minutes using 26 frames of increasing length (6×20 seconds; 4×30 seconds; 6×60 seconds; 4×5 minutes; 6×10 minutes). Approximately 185 MBq (˜5 mCi) of a high specific activity (>14.8 GBq/μmol) Compound B or Compound C was injected in a baboon. In other studies, 148-296 MBq (4-8 mCi) of a high specific activity (>18.5 GBq/μmol) reference PET radiotracer was injected, including either [^11C](+)-McN5652, [carbonyl-^11C]WAY100635, or [^18F]altanserin. The PET data were reconstructed using a Hanning filter (Nyquist cut-off) and corrected for decay, photon attenuation, and scatter.
An MRI scan was obtained for each baboon using a 1.5T GE Signa scanner (GE Medical Systems, Milwaukee, Wis.) equipped with a standard head coil. A volumetric spoiled gradient recalled (SPGR) MR sequence with parameters for high contrast among gray matter, white matter, and cerebral spinal fluid (CSF) was acquired in the coronal plane (TE=5, TR=24, flip angle=40°, slice thickness=1.5 mm, NEX=2, field of view 12 cm, voxel size=0.94×1.25×1.5 mm). Each individual baboon's MR image was coregistered to the PET data using the automated image registration (AIR) algorithm for cross-modality image alignment and reslicing. The initial 16 frames ([…] post-injection) of the dynamic PET images were summed together into images consisting of a single frame. Prior to co-registration, both the MR and summed PET images were edited using the ANALYZE software package (Mayo Clinic. Rochester, Minn.) to remove extracerebral tissues that could possibly confound the co-registration process. The edited MR images were then coregistered to the summed PET image and resliced to yield MR images in the same spatial orientation and resolution as the summed PET images.

[2] = In vivo mouse brain entry studies; parameters: species or system female Swiss-Webster mice
Procedure: This study reflects brain entry and clearance from normal brain tissue.
The mice were anesthetized and killed by cardiac excision following cardiac puncture to obtain arterial blood samples at 2 minutes or 30 minutes post-injection. The mouse brains were rapidly excised and divided into the cerebellum and the remaining whole brain (including brain stem) fractions. The brain samples were counted in a gamma well-counter, and the counts were decay-corrected to the time of injection relative to ^125I or ^18F standards prepared from the injection solution to determine the percent injected dose (% ID) in the samples. The brain samples were weighed to determine the percent injected dose per gram tissue (% ID/g), and this quantity was multiplied by the whole body weight (in kg) to determine the body-weight normalized radioactivity concentration [(% ID-kg)/g] of each tissue sample.

[3] = baboon cerebellar time-activity curves, reference PET radioligands

| SMILES | peak maximum radioactivity remaining in brain at later time points [1] | early-to-late brain radioactivity concentration [1] | rate of non-specific clearance (t1/2) [1] [min] | higher concentration of radioactivity at 90 minutes in white matter regions than in gray matter regions [1] [%] | clearance half-time from baboon brain gray matter [1] | brain penetration of radioactivity at early time points [1] | non-specific binding clearance rate (in words) [1, 3] | other results |
| --- | --- | --- | --- | --- | --- | --- | --- | --- |
| CNc1ccc(-c2nc3ccc(O)cc3s2)cc1[18F] [Compound B, 2-(3-[^18F]-fluoro-4-methylamino-phenyl)-benzothiazol-6-ol] | about 25% | about 4 | 17 | ~30 | about 17 minutes | about 0.40 % ID-kg/g |  | 2 min./30 min. Ratio ([2]; mouse, in vivo): 10; Radioactivity Conc. at 2 min. ([2]; mouse, in vivo): 0.29 % ID-kg/g; Radioactivity Conc. at 30 min. ([2]; mouse, in vivo): 0.030 % ID-kg/g; brain entry and clearance (in words) ([2]; mouse, in vivo): relatively high brain entry at early time points and fast clearance at later time points |
| [11CH3]Sc1ccc([C@@H]2CN3CCC[C@@H]3c3ccccc32)cc1 [[^11C](+)-McN5652, reference compound] |  |  |  |  |  |  | relatively slow in vivo clearance |  |
| Oc1ccc2nc(-c3ccc(NCCC[18F])cc3)sc2c1 [Compound C, 2-[4-(3-^18F-fluoro-propylamino)-phenyl]benzothiazol-6-ol] | about 15% | about 6 | 10 | < 10 | about 10 minutes | about 0.22 % ID-kg/g |  | brain entry and clearance (in words) ([2]; mouse brain, 2 and 30 minutes post-injection): relatively high brain entry at early time points and fast clearance at later time points; Radioactivity Conc. at 2 min. ([2]; mouse brain, 2 minutes post-injection, lateral tail vein injection, wild type mice without amyloid deposits): 0.17 % ID-kg/g; Radioactivity Conc. at 30 min. ([2]; mouse brain, 30 minutes post-injection, lateral tail vein injection, wild type mice without amyloid deposits): 0.011 % ID-kg/g; 2 min./30 min. Ratio ([2]; ratio of 2 minutes-to-30 minutes (% ID-kg)/g values, mouse brain, measure of non-specific binding clearance rate): 16 |
| O=C(c1ccc([18F])cc1)C1CCN(CCn2c(=S)[nH]c3ccccc3c2=O)CC1 [[^18F]altanserin, reference compound] |  |  |  |  |  |  | relatively rapid non-specific binding clearance rates |  |
| COc1ccccc1N1CCN(CCN(c2ccccn2)[11C](=O)C2CCCCC2)CC1 [[carbonyl-^11C]WAY100635, reference compound] |  |  |  |  |  |  |  | non-specific binding clearance rate (in words) ([1]; in vivo): relatively rapid non-specific binding clearance rates |
